Like-named read-outs stand apart in the source and are kept apart here.
Key:
[1] = system: MCF-7; experiment: MTT cell viability assay, MCF-7; format: cell-based, human; conditions: read-out: IC50 (µM) in Cultured Cells MCF-7
Text: (§1) Cell lines used for cytotoxicity assays included MCF-7 (human breast adenocarcinoma), A549 (human lung adenocarcinoma), K562 (human chronic myelogenous leukemia) and HEK-293 (human embryonic kidney) cells and were obtained from the Iranian Biological Resource Center, Tehran, Iran. MES-SA-DX5 multidrug resistant human uterine sarcoma, over-expressing P-gp and their parental non-resistant MES-SA cell lines were purchased from Sigma-Aldrich (St. Louis, MO, USA). All cells, except for HEK-293, were cultured in RPMI 1640 supplemented with 10% FBS and 100 units/mL penicillin-streptomycin at 37 °C in humidified air containing 5% CO2. HEK-293 cells were maintained in DMEM-F12 medium containing L-glutamine 2 mM supplemented with FBS and penicillin-streptomycin. MES-SA-DX5 cells were maintained in media containing 100 nM doxorubicin in order to ensure that only drug-resistant cells continue to grow.
(§2) Cytotoxicity of the test compounds were evaluated by MTT assay. In this method, reduction of MTT, a yellow tetrazolium salt to the purple formazan, by cellular dehydrogenase enzymes is determined as an index of cell viability. Cancer cells were seeded into 96-well plates (3–5 × 10^3 cells/well) and incubated for 24 h at 37 °C. Afterwards, four different concentrations of synthesized derivatives were added in triplicate and the cells were incubated at 37 °C for another 72 h, after which the media was replaced with MTT solution at a concentration of 0.5 mg/mL was added for MTT assay. After another 4h, formazan crystals were dissolved in 200 μL DMSO for 90 min and absorbance was measured at a wavelength of 570 nm with background correction at 650 nm using a microplate reader (model 680, Bio-Rad, Hercules, CA, USA) and IC50 for each compound was calculated with CurveExpert version 1.34 for Windows.

[2] = system: A-549; experiment: MTT cell viability assay, A-549; format: cell-based, human; conditions: read-out: IC50 (µM) in Cultured Cells A-549
Text: as §1, §2

[3] = system: K562; experiment: MTT cell viability assay, K562; format: cell-based, human; conditions: read-out: IC50 (µM) in Cultured Cells K562
Text: as §1, §2

[4] = system: MES-SA-DX5; experiment: MTT cell viability assay, MES-SA-DX5; format: cell-based, human; conditions: multidrug resistant, P-gp overexpressing, read-out: IC50 (µM) in Cultured Cells MES-SA-DX5
Text: as §1, §2

[5] = system: MES-SA; experiment: MTT cell viability assay, MES-SA; format: cell-based, human; conditions: for IC50: MTT, 72 h, parental non-resistant, read-out: IC50 (µM) in Cultured Cells MES-SA
Text: as §1, §2

[6] = system: HEK-293; experiment: MTT cell viability assay, HEK-293; format: cell-based, human; conditions: non-cancerous, read-out: IC50 (µM) in Cultured Cells HEK-293
Text: as §1, §2

[7] = system: MES-SA-DX5 cells; experiment: Cell cycle analysis by propidium iodide (PI)-RNase flow cytometry; format: cell-based, human; set-up: Sub G1: unit not given here; conditions: 24 h
Description: The analysis of cells in different phases of cell cycle and sub-G1 was performed using propidium iodide (PI)-RNase assay by flow cytometry. MES-SA-DX5 cells were seeded in 12-well plates (1 × 10^6 cells/well) and treated with different concentrations of synthesized compounds for 24 h. The cells were then collected, washed with PBS, and fixed with 70% ethanol overnight at –20 °C. After at least 24 h, fixed cells were washed with PBS and subsequently stained with a DNA staining solution containing PI 20 μg/mL and RNase 200 μg/mL at room temperature for 30 min in the dark. Twenty thousand cells of each sample were analyzed using a BD FACSCalibur flow cytometer (BD Biosciences, USA) and the amount of the cells in sub-G1, G0/G1, S, and G2/M phases were estimated using CellQuest (Becton Dickinson, San Jose, CA, USA) software.
Therefore, it could be concluded that these compounds cause cytotoxicity in drug resistant MES-SA-DX5 cells by induction of apoptosis in these cells.
Figure 3 Effect of synthesized derivatives on cell cycle alterations in MES-SA-DX5 drug resistant cells. The cells in different phases of cell cycle were monitored using propidium iodide (PI)-RNase assay by flow cytometry. MES-SA-DX5 cells were seeded in 12-well plates (1 × 10^6 cells/well) and treated with different concentrations of synthesized compounds for 24 h. The cells were then collected, washed with PBS and fixed with 70% ethanol overnight at –20 °C. After at least 24 h, fixed cells were washed with PBS and subsequently stained with a DNA staining solution containing PI 20 μg/mL and RNase 200 μg/mL at room temperature for 30 min in the dark. Twenty thousand cells of each sample were analyzed using a FACS Calibur flow cytometer (BD Biosciences, USA). Representative histograms of cells treated with synthesized compounds are shown. An increase in sub-G1 phase cells could be observed after treatment with A1, A2, B1, and B2 compounds.

| Compound | IC50 ([1]; Homo sapiens, MCF7, 72 h) [µM] | IC50 ([2]; Homo sapiens, A549, 72 h) [µM] | IC50 ([3]; Homo sapiens, K562, 72 h) [µM] | IC50 ([4]; Homo sapiens, MES-SA/Dx5, 72 h) [µM] | melting point [°C] | also measured |
| --- | --- | --- | --- | --- | --- | --- |
| 4-(3,4-Dimethoxyphenyl)-2-methyl-N-(5-methylthiazol-2-yl)-5-oxo-5,6,7,8-tetrahydroquinoline-3-carboxamide [Compound B8] |  |  |  |  |  | IC50 ([1]; 72 h): > 100 µM; IC50 ([2]; 72 h): > 100 µM; IC50 ([3]; 72 h): 67.5 ± 8 µM; IC50 ([4]; 72 h): > 100 µM |
| N.N.[Cl][Pt][Cl] [Cisplatin, cisplatin, reference compound] |  |  |  |  |  | IC50 ([1]; 72 h): 26.3 ± 7.9 µM; IC50 ([2]; 72 h): 14 ± 0.5 µM; IC50 ([3]; 72 h): 3.3 ± 2.3 µM; IC50 ([4]; 72 h): 8.6 ± 0.5 µM; IC50 [5]: 1.2 ± 0.1 µM; IC50 ([6]; 72 h): 1.1 ± 0.5 µM |
| CC1=C(C(=O)Nc2csc(C)n2)C(c2cccc(Cl)c2)C2=C(CCCC2=O)N1 (stereo not drawn) [Compound A3, 4-(3-Chlorophenyl)-2-methyl-N-(2-methylthiazol-4-yl)-5-oxo-1,4,5,6,7,8-hexahydroquinoline-3-carboxamide] | > 100 | > 100 | 56.4 ± 7 | 78 ± 4 | 253 | G0/G1 ([7]; 10 µM): 50.35 ± 4.5; G2/M ([7]; 10 µM): 23.25 ± 1.6; S ([7]; 10 µM): 18.23 ± 2.6; Sub G1 ([7]; 10 µM): 0.51 ± 0.1; G0/G1 ([7]; 25 µM): 56.18 ± 1.2; G2/M ([7]; 25 µM): 23.08 ± 1.0; S ([7]; 25 µM): 19.70 ± 2.0; Sub G1 ([7]; 25 µM): 0.97 ± 0.2; G0/G1 ([7]; 100 µM): 53.64 ± 1.4; G2/M ([7]; 100 µM): 29.46 ± 1.8; S ([7]; 100 µM): 13.31 ± 1.0; IC50 ([5]; Homo sapiens, MES-SA): > 100 µM; IC50 ([6]; 72 h): 93.7 ± 11.9 µM; IC50 ([6]; Homo sapiens, HEK293, 72 h): > 50 µM |
| COc1cc(C2C(C(=O)Nc3csc(C)n3)=C(C)NC3=C2C(=O)CCC3)cc(OC)c1OC (stereo not drawn) [Compound A4, 2-Methyl-N-(2-methylthiazol-4-yl)-5-oxo-4-(3,4,5-trimethoxyphenyl)-1,4,5,6,7,8-hexahydroquinoline-3-carboxamide] | > 100 | > 100 | > 100 | > 100 | 160 |  |
| CCOc1cc(C2C(C(=O)Nc3csc(C)n3)=C(C)NC3=C2C(=O)CCC3)ccc1O (stereo not drawn) [Compound A6, 4-(3-Ethoxy-4-hydroxyphenyl)-2-methyl-N-(2-methylthiazol-4-yl)-5-oxo-1,4,5,6,7,8-hexahydroquinoline-3-carboxamide] | > 100 | > 100 | > 100 | > 100 | 251 |  |
| COc1ccc(C2C(C(=O)Nc3csc(C)n3)=C(C)NC3=C2C(=O)CCC3)cc1 (stereo not drawn) [Compound A7, 4-(4-Methoxyphenyl)-2-methyl-N-(2-methylthiazol-4-yl)-5-oxo-1,4,5,6,7,8-hexahydroquinoline-3-carboxamide] | > 100 | > 100 | > 100 | > 100 | 185 |  |
| COc1ccc(C2C(C(=O)Nc3csc(C)n3)=C(C)NC3=C2C(=O)CCC3)cc1OC (stereo not drawn) [Compound A8, 4-(3,4-Dimethoxyphenyl)-2-methyl-N-(2-methylthiazol-4-yl)-5-oxo-1,4,5,6,7,8-hexahydroquinoline-3-carboxamide] | > 100 | > 100 | > 100 | > 100 | 222 |  |
| Cc1nc(NC(=O)c2c(C)nc3c(c2-c2cccc(Cl)c2)C(=O)CCC3)cs1 [Compound B3, 4-(3-Chlorophenyl)-2-methyl-N-(2-methylthiazol-4-yl)-5-oxo-5,6,7,8-tetrahydroquinoline-3-carboxamide] | > 100 | > 100 | 50.2 ± 2.6 | 85.2 ± 7.4 | 241 | IC50 ([5]; Homo sapiens, MES-SA): > 100 µM; IC50 ([6]; 72 h): > 100 µM; IC50 ([6]; Homo sapiens, HEK293, 72 h): > 50 µM |
| COc1cc(-c2c(C(=O)Nc3csc(C)n3)c(C)nc3c2C(=O)CCC3)cc(OC)c1OC [Compound B4, 2-Methyl-N-(2-methylthiazol-4-yl)-5-oxo-4-(3,4,5-trimethoxyphenyl)-5,6,7,8-tetrahydroquinoline-3-carboxamide] | > 100 | > 100 | > 100 | > 100 | 238 |  |
| CCOc1cc(-c2c(C(=O)Nc3csc(C)n3)c(C)nc3c2C(=O)CCC3)ccc1O [Compound B6, 4-(3-Ethoxy-4-hydroxyphenyl)-2-methyl-N-(2-methylthiazol-4-yl)-5-oxo-5,6,7,8-tetrahydroquinoline-3-carboxamide] | > 100 | > 100 | > 100 | > 100 | 267 |  |
| COc1ccc(-c2c(C(=O)Nc3csc(C)n3)c(C)nc3c2C(=O)CCC3)cc1 [Compound B7, 4-(4-Methoxyphenyl)-2-methyl-N-(2-methylthiazol-4-yl)-5-oxo-5,6,7,8-tetrahydroquinoline-3-carboxamide] | > 100 | > 100 | 32.9 ± 5.1 | > 100 | 166 |  |
| COc1cccc2c1C(=O)c1c(O)c3c(c(O)c1C2=O)C[C@@](O)(C(=O)CO)C[C@@H]3O[C@H]1C[C@H](N)[C@H](O)[C@H](C)O1 [Doxorubicin, reference compound] | 0.115 ± 0.042 | 0.575 ± 0.127 | 0.042 ± 0.006 | 2.2 ± 0.3 |  | G0/G1 ([7]; 2.5 µM): 34.23 ± 3.3; G2/M ([7]; 2.5 µM): 52.10 ± 4.4; S ([7]; 2.5 µM): 12.57 ± 1.4; Sub G1 ([7]; 2.5 µM): 1.08 ± 0.2; G0/G1 ([7]; 5 µM): 21.50 ± 2.5; G2/M ([7]; 5 µM): 64.13 ± 4.2; S ([7]; 5 µM): 12.57 ± 1.7; Sub G1 ([7]; 5 µM): 1.81 ± 0.3; IC50 ([5]; Homo sapiens, MES-SA): 0.01 ± 0.002 µM; sensitivity of parental MES-SA cells compared to resistant cells ([5]; MES-SA vs MES-SA-DX5, MTT): more than 200 times; IC50 ([6]; Homo sapiens, HEK293, 72 h): 0.009 ± 0.002 µM |
